The source of these data is patent US11278514B2, “Composition compromising dunnione as effective ingredient for prevention or alleviation of hair loss” (NADIANBIO LTD., priority 2018, dated 2022).

The test system of assay [1] is C57BL/6 mice having alopecia caused by cyclophosphamide. The method, then: The day, on which the mice were hair-removed in Example 1, was set as day 0, and the animals were divided into the following groups: normal group (Control, 4 animals) in which only PBS is intraperitoneally injected on day 9; cyclophosphamide group (CYP, 6 animals) in which cyclophosphamide (150 mg/kg) is intraperitoneally injected on day 9; combination-treated group (CYP+Dunnione, 6 animals) in which dunnione is orally administered on a daily basis starting from 3 days prior to treatment with cyclophosphamide; and dunnione alone-treated group (Dunnione, 4 animals) in which only dunnione (20 mg/kg) is administered (FIG. 1).
The day, on which the mice were hair-removed in Example 1, was set as day 0, and the mice in each of the experimental groups described in Example 2 were sacrificed on day 18. Subsequently, the mouse dorsal skin was dissected parallel or perpendicular to the vertebral line, and removed. The removed skin was fixed with a Bouin's solution for 12 hours, subjected to dehydration, and embedded in paraffin. Then, the resulting product was prepared into 5-μm sections. The prepared sections were subjected to hematoxylin and eosin (H&E) staining, and histological changes in the skin in each experimental group were observed.

Assay [2] has as its system NQO1 knockout mice. The settings on record: day 18. The method, then:
The day, on which the NQO1 knockout mice were hair-removed according to Example 1, was set as day 0, and the animals were divided into the following experimental groups and used for experiments: normal group (Control, 4 animals) in which only PBS is intraperitoneally injected on day 9; cyclophosphamide group (CYP, 6 animals) in which cyclophosphamide (150 mg/kg) is intraperitoneally injected on day 9; combination-treated group (CYP+Dunnione, 6 animals) in which dunnione is orally administered on a daily basis starting from 3 days prior to treatment with cyclophosphamide; and dunnione alone-treated group (Dunnione, 4 animals) in which only dunnione (20 mg/kg) is administered (FIG. 1).
The day, on which the NQO1 knockout mice were hair-removed according to Example 1, was set as day 0, and the mice in each of the experimental groups described in Example 3 were sacrificed on day 18. Subsequently, the mouse dorsal skin was dissected parallel or perpendicular to the vertebral line, and removed. The removed skin was fixed with a Bouin's solution for 12 hours, subjected to dehydration, and embedded in paraffin. Then, the resulting product was prepared into 5-μm sections. The prepared sections were subjected to hematoxylin and eosin (H&E) staining, and histological changes in the skin in each experimental group were observed.

For assay [3], the system named is Sirt1. Description: Sirt1 activity in skin tissue (fluorescent Sirt1 detection kit), cyclophosphamide alopecia model. Format: in vivo, mice. The note with it: cyclophosphamide plus dunnione combination-treated group; day 18. The method, then:
In addition, the skin tissue obtained from the animal model prepared by the method in Example 2 was homogenized. The homogenized skin tissue was tested with the fluorescent Sirt1 detection kit (BML-AK555-0001) of Enzo Life Sciences International, Inc. according to the instruction manual, and then Sirt1 activity was analyzed. 40 μg of the homogenized skin tissue was mixed with a reaction solution (Fluor de Lys-Sirt1, NAD+, buffer solution (25 mM Tris-HCl (pH8.0), 137 mM NaCl, 2.7 mM […], 1 mM MgCl2, and 1 mg/mL BSA)), and reaction was allowed to proceed at a temperature of 37° C. for 1 hour. Then, additional reaction was allowed to proceed for 5 minutes under a condition in which a developer is added. In order to check the final Sirt1 activity, readings were measured for the reaction solution using the CytoFluor series 4000 fluorometer (PerSeptive Biosystems, Inc., USA) with the excitation wavelength set to 360 nm and the emission to 460 nm.

Assay [4] has as its system NF-κB p65. The assay is described as follows: Acetylation of NF-κB p65 in skin tissue (western blot), cyclophosphamide alopecia model. The settings on record: cyclophosphamide plus dunnione; day 18. Format: in vivo, mice. Here is the method: (§1) In the cyclophosphamide-induced alopecia mouse model of Example 2, expression level of Sirt1 protein and acetylation reaction of the target proteins thereof, NF-κB p65 and p53, were identified on the skin tissue obtained on day 18 after hair removal.
(§2) Specifically, 10 mg of the skin tissue obtained from the animal model prepared by the method in Example 2 was homogenized by addition of a lysis solution (RIPA lysis buffer). Then, centrifugation was performed at 14,000 rpm for 10 minutes. The protein concentration in the supernatant was quantified with a bovine serum albumin (BSA) standard solution. The skin tissue protein was used in an amount of 40 μg per test solution. First, the homogenized skin tissue was mixed with a sample solution (Bio-Rad, 161-0747) and inactivated at a temperature of 95° C. for 5 minutes. Thereafter, the protein was separated by a sodium dodecyl sulfate-polyacrylamide gel electrophoresis (SDS-PAGE) method, and then transferred to a nitrocellulose membrane. Treatment with anti-Sirt1 antibody (Abcam), anti-acetyl NF-κB p65 antibody and anti-acetyl p53 antibody (Cell Signaling Technologies), and anti-β-actin antibody (Santa Cruz Biotechnology) as primary antibodies were performed, and reaction was allowed to proceed. […]

The subject of assay [5] is p53. Description: Acetylation of p53 in skin tissue (western blot), cyclophosphamide alopecia model. Format: in vivo, mice. The settings on record: cyclophosphamide plus dunnione; day 18. Here is the method: as §1, §2
The test system of assay [6] is C57BL/6 mice having alopecia caused by docetaxel, adriamycin, and cyclophosphamide. The assay is described as follows: Histological changes in skin (H&E) in animal model having alopecia caused by 6×TAC. The note with it: day 18. Type of assay: in vivo.
Procedure: The day, on which the mice were hair-removed in Example 1, was set as day 0, and the mice in each of the experimental groups described in Example 4 were sacrificed on day 18. Subsequently, the mouse dorsal skin was dissected parallel or perpendicular to the vertebral line, and removed. The removed skin was fixed with a Bouin's solution for 12 hours, subjected to dehydration, and embedded in paraffin. Then, the resulting product was prepared into 5-μm sections. The prepared sections were subjected to hematoxylin and eosin (H&E) staining, and histological changes in the skin in each experimental group were observed.
The subject of assay [7] is intracellular NAD^+. The settings on record: reported to date (Pandit et al. 2015; Shen et al. 2017); cited from earlier work.

“Also recorded” adds a separate entry of the source. Like-named read-outs stand apart in the source and are kept apart here.

Take `CC1OC2=C(C(=O)C(=O)c3ccccc32)C1(C)C` (stereo not shown) [dunnione, 2,3-dihydro-2,3,3-trimethyl-naphtho[1,2-b]furan-4,5-dione]: the “development of hair follicles and inner root sheaths (histology)” value is “suppressed falling-off of hair follicles and inner root sheaths; also recorded: the hair follicles and the inner root sheaths have well developed overall” in assay [1] (CYP+Dun combination-treated group, day 18 after hair removal); “the hair follicles have poorly developed or the inner root sheaths have insufficiently developed; also recorded: falling-off of hair follicles and inner root sheaths in the skin tissue progresses” in assay [2] (CYP+Dun combination-treated group); “the hair follicles and inner root sheaths have well developed overall” in assay [2] (dunnione alone); “the hair follicles and the inner root sheaths have well developed overall; also recorded: suppressed falling-off of hair follicles and inner root sheaths” in assay [6] (6×TAC+Dunnione combination-treated group). Further, the “number of growing hairs (histology)” value in assay [1] (CYP+Dun compared with cyclophosphamide alone-treated group, day 18) is “increased number of hairs”; in assay [6] (6×TAC+Dunnione compared with 6×TAC alone-treated group) it was “increased number of hairs”. The “Sirt1 activity in skin tissue” value in assay [3] was “maintained at a level similar to the normal group”. Also, the “acetylation of NF-κB p65 in skin tissue” value in assay [4] is given as “suppresses”. Further, in assay [5], the “acetylation of p53 in skin tissue” value was “suppresses”. Moreover, in assay [7], the “intracellular NAD^+” value is on record as “increase”.
